Data as given in patent publication US20250008996A1, “Flavored Food and Beverage Products” (Firmenich SA, priority 2014, published 2025).

Experiments:
Format in all cases: in vivo
[1] = Sweetness intensity in sucrose solution, thirty participants (Example 2); settings: 125 ppm Naringenin in 5% sucrose solution in water
Procedure: Example 2. Two samples were prepared. The first sample was a 6% sucrose solution in water. The second sample was a 5% sucrose solution in water with 125 ppm Naringenin. The samples were tested for sweetness intensity by thirty participants.

[2] = Sweetness intensity in 150 ppm Reb.A in water, four trained experts (Example 9)
Procedure: Example 9: Three samples were prepared and compared with 150 ppm Reb.A (PureCircle) in water; equisweet to 3.5% sucrose (in red, FIG. 9). The first sample comprised 150 ppm Reb.A with 10 ppm Naringenin. The second sample was a 150 ppm Reb.A with 25 ppm Naringenin. The third sample comprised 150 ppm Reb.A with 50 ppm Naringenin. All samples were tested for sweetness intensity at room Temperature by four experts especially trained to evaluate sweet products.

[3] = Sweetness intensity in 300 ppm Reb.A in water, four trained experts (Example 10)
Procedure: Example 10: Six samples were prepared and compared with 300 ppm Reb.A in water; 100% sweetness level (in red, FIG. 10). The first sample comprised 300 ppm Reb. A with 10 ppm Naringenin. The second sample was a 300 ppm Reb.A with 25 ppm Naringenin. The third sample was a 300 ppm Reb.A with 50 ppm Naringenin. The fourth sample comprised 300 ppm Reb.A with 75 ppm Naringenin. The fifth sample was a 300 ppm Reb.A with 100 ppm Naringenin. The sixth sample was a 300 ppm Reb.A with 150 ppm Naringenin. All samples were tested for sweetness intensity at room Temperature by four experts especially trained to evaluate sweet products. […] On the other hand, the addition of 100 and 150 ppm Naringenin to 300 ppm Reb.A solution has a small loss of sweetness (8%).

[4] = Tasting of Naringenin alone and combined with sweeteners (summary statements); settings: combined with other sweeteners, some embodiments
Procedure: However, when combined with others sweeteners, Naringenin provides sweetness enhancement to composition comprising a sweetener. In some embodiments, Naringenin provides a sweetness equivalent to 1-2° brix of sucrose equivalents.

Structure (SMILES) | sweetness level reached, as sucrose solution without Naringenin [1] [% sucrose] | sweetness intensity reached, as sucrose level ([2]; 50 ppm Naringenin in 150 ppm Reb.A solution, room temperature) [% sucrose] | equisweet Reb.A level in water ([3]; 10 to 75 ppm Naringenin in 300 ppm Reb.A solution) [ppm Reb.A] | sweetness enhancement effect ([3]; 10 to 75 ppm Naringenin in 300 ppm Reb.A solution, 300 ppm Reb.A = 100%) [%] | loss of sweetness ([3]; 100 and 150 ppm Naringenin in 300 ppm Reb.A solution, 300 ppm Reb.A = 100%) [%] | sweetness provided, sucrose equivalents [4] | equisweet sucrose level ([2]; 150 ppm Reb.A in water without Naringenin) [% sucrose]
O=C1C[C@@H](c2ccc(O)cc2)Oc2cc(O)cc(O)c21 [Naringenin, 2,3-Dihydro-5,7-dihydroxy-2(-4-hydroxyphenyl)-4H-1-bcmzopyran-4-one] | ~6 | 4 | 350 | 17 | 8 | 1-2 ° brix of sucrose equivalents | 
C=C1C[C@@]23CC[C@H]4[C@@](C)(CCC[C@@]4(C)C(=O)O[C@@H]4O[C@H](CO)[C@@H](O)[C@H](O)[C@H]4O)[C@@H]2CC[C@]1(O[C@@H]1O[C@H](CO)[C@@H](O)[C@H](O[C@@H]2O[C@H](CO)[C@@H](O)[C@H](O)[C@H]2O)[C@H]1O[C@@H]1O[C@H](CO)[C@@H](O)[C@H](O)[C@H]1O)C3 [Reb.A, rebaudioside A, reference compound] |  |  |  |  |  |  | 3.5
